Assays:
[1] = tested on: human intestinal microbiota; experiment: SCFA production after omega-3 amino acid salts and controls (Example 2); format: cell-based; conditions: salts 1.4 mg/ml, FFA 0.96, Lys 0.49, Arg 0.52, Orn 0.5 mg/ml; for Acetate, change compared to control / Propionate, change compared to control / n-Butyrate, change compared to control: triplicates
Method: (§1) To determine the effect of a EPA/DHA lysine salt (EPA/DHA-Lys) on adult colonic microbiota, an intestinal screening model was used (I-screen, TNO, the Netherlands). Therefore, the I-screen model was inoculated with standard human adult fecal microbiota material, which consisted of pooled fecal donations from six healthy adult volunteers (Caucasian, European lifestyle and nutrition). The fecal material was mixed and grown in a fed-batch fermenter for 40 hours to create a standardized microbiota as described previously.
(§2) The intestinal microbiota was cultured in vitro in modified standard ileal efflux medium (SIEM), the composition of which was described by Minekus et al.. All components were supplied by Trititium Microbiology (Veldhoven, The Netherlands). The pH of the medium was adjusted to 5.8.
(§3) For the I-screen fermentations, the pre-cultured standardized fecal inoculum was diluted 50 times in modified SIEM. EPA/DHA-Lys was introduced into the I-screen to final concentrations of 1.4 mg/ml and 1.5 mg/ml, respectively; omega-3 ethyl ester and fish oil at 1.4 mg/ml each. Inulin was added as a control at a final concentration of 4 mg/ml. […] All experiments were carried out in triplicates.
(§4) For the analysis of short-chain fatty acids in exposed material from the I-screen, samples were centrifuged (˜4000 g, 5 min), clear supernatant was filter sterilized (0.45 μm) and a mixture of formic acid (20%), methanol and 2-ethyl butyric acid (internal standard, 2 mg/ml in methanol) was added.
The effects of different omega-3 amino acid salts omega-3-lysine (omega-3-lys), omega-3-arginine (omega-3-arg) and omega-3-ornithine (omega-3-orn) and their respective controls (free fatty acids (FFA), amino acids lysine (lys), arginine (arg) and ornithine (orn)) on SCFA production by an intestinal microbiota were analyzed.

[2] = in vivo; cited from earlier work
[3] = tested on: human fecal microbiota 2; experiment: TIM-2 in vitro colon model, SCFA production, microbiota 2 (Example 6); format: cell-based; conditions: for Cumulative production of acetate / Cumulative production of butyrate / Cumulative production of propionate: lumen and dialysate, duplicates
Description: TIM-2 is an abbreviation of TNO's in vitro model-2, an advanced dynamic, computer-controlled in vitro model of the adult human colon. TIM-2 simulates to a high degree the successive dynamic processes in the colon and is predictive for what happens in human individuals. The following in vivo conditions are simulated in this model: body temperature, pH in the lumen, composition and rate of secretion, delivery of a pre-digested substrate from the ‘ileum’ (SIEM), mixing and transport of the intestinal contents, absorption of water and microbial metabolites and presence of a complex, high density, metabolically active, anaerobic fecal microbiota of human origin.
The model was set-up and inoculated with the microbiota on the first day. Following an overnight adaptation period in SIEM, the test-products were fed at final concentrations of 1.4 mg/ml EPA/DHA-Lys or 1 mg/ml L-rhamnose in SIEM during an intervention period of 72 hrs. Cultivation in SIEM without any additional substance served as control condition.
Samples were taken from the lumen and the dialysate every 24 hrs (t0, t24, t48 and t72) to study the metabolic activity of the gut microbiota (SCFA production) and changes in composition of the gut microbiota (16S rRNA gene analysis).
Samples were analyzed for SCFA by ion-chromatography.
A second TIM-2 study was performed, using conditions as described under Example 3 but applying a different human fecal microbiota (termed microbiota 2), to assess whether the observed effects are dependent on the initial microbiota composition.
T1=EPA/DHA-Lys (ω-3); T2=L-rhamnose.

[4] = tested on: human fecal microbiota 1; experiment: TIM-2 in vitro colon model, SCFA production, microbiota 1 (Example 3); format: cell-based; conditions: for Cumulative production of acetate / Cumulative production of butyrate / Cumulative production of propionate: lumen and dialysate, duplicates
Description: To confirm the results for omega-3 amino acid salts, using omega-3 lysine as an example, an additional, independent and more advanced model of fermentation by the human colonic microbiota was applied, the TIM-2 model. Next to omega-3 lysine the prebiotic carbohydrate L-rhamnose was also applied. TIM-2 is an abbreviation of TNO's in vitro model-2, an advanced dynamic, computer-controlled in vitro model of the adult human colon. TIM-2 simulates to a high degree the successive dynamic processes in the colon and is predictive for what happens in human individuals. The following in vivo conditions are simulated in this model: body temperature, pH in the lumen, composition and rate of secretion, delivery of a pre-digested substrate from the ‘ileum’ (SIEM), mixing and transport of the intestinal contents, absorption of water and microbial metabolites and presence of a complex, high density, metabolically active, anaerobic fecal microbiota of human origin. The model was set-up and inoculated with the microbiota on the first day. Following an overnight adaptation period in SIEM, the test-products were fed at final concentrations of 1.4 mg/ml EPA/DHA-Lys or 1 mg/ml L-rhamnose in SIEM during an intervention period of 72 hrs. Cultivation in SIEM without any additional substance served as control condition. Samples were taken from the lumen and the dialysate every 24 hrs (t0, t24, t48 and t72) to study the metabolic activity of the gut microbiota (SCFA production) and changes in composition of the gut microbiota (16S rRNA gene analysis). Samples were analyzed for SCFA by ion-chromatography. […] The order of Pr/Ac for the 72 h treatments is control (SIEM)<L-rhamnose<EPA/DHA-Lys (ω-3)<L-rhamnose+EPA/DHA-Lys (ω-3).

[5] = cited from earlier work
[6] = tested on: human fecal microbiota; experiment: I-screen intestinal screening model, SCFA production (Example 1); format: cell-based; conditions: 24 h incubation, mean of triplicates
Method: as §1, with “previously. These standard adult gut microbiota sets were stored at −80° C. in 12% glycerol.” for “previously.”
as §2, §3, §4

Molecule: N=C(N)NCCC[C@H](N)C(=O)O [Arg, L-arginine]
- Propionate/acetate ratio [1]: 0.40
- Acetate, change compared to control [1]: +8.29 mM
- Propionate, change compared to control [1]: +2.02 mM
- n-Butyrate, change compared to control [1]: +0.71 mM

Molecule: NCCCC[C@H](N)C(=O)O [Lys, L-lysine]
- Propionate/acetate ratio [1]: 0.40
- Acetate, change compared to control [1]: +8.81 mM
- Propionate, change compared to control [1]: +2.12 mM
- n-Butyrate, change compared to control [1]: +0.29 mM

Molecule: NCCC[C@H](N)C(=O)O [Orn, L-ornithine]
- Propionate/acetate ratio [1]: 0.36
- Acetate, change compared to control [1]: +10.15 mM
- Propionate, change compared to control [1]: +1.74 mM
- n-Butyrate, change compared to control [1]: +0.19 mM

Molecule: CC(=O)O [acetate]
- Systemic availability of colonic SCFA [2]: ~36%

Molecule: CCCC(=O)O [butyrate]
- Systemic availability of colonic SCFA [2]: ~2%

Molecule: C[C@H](O)[C@H](O)[C@@H](O)[C@@H](O)C=O [rhamnose, L-rhamnose]
- Cumulative production of acetate ([3]; 0 h): 0.00 mmol
- Cumulative production of butyrate ([3]; 0 h): 0.00 mmol
- Cumulative production of propionate ([3]; 0 h): 0.00 mmol
- Pr/Ac (propionate-to-acetate ratio) ([3]; 24 h): 0.57
- Cumulative production of acetate ([3]; 24 h): 25.30 mmol
- Cumulative production of butyrate ([3]; 24 h): 15.69 mmol
- Cumulative production of propionate ([3]; 24 h): 14.30 mmol
- Pr/Ac (propionate-to-acetate ratio) ([3]; 48 h): 0.56
- Cumulative production of acetate ([3]; 48 h): 56.28 mmol
- Cumulative production of butyrate ([3]; 48 h): 35.02 mmol
- Cumulative production of propionate ([3]; 48 h): 31.64 mmol
- Pr/Ac (propionate-to-acetate ratio) ([3]; 72 h): 0.56
- Cumulative production of acetate ([3]; 72 h): 81.62 mmol
- Cumulative production of butyrate ([3]; 72 h): 52.10 mmol
- Cumulative production of propionate ([3]; 72 h): 45.41 mmol
- Ratio of SCFA: acetate as percentage of acetate + propionate + butyrate ([3]; microbiota 2, average): 45.7%
- Ratio of SCFA: butyrate as percentage of acetate + propionate + butyrate ([3]; microbiota 2, average): 29.0%
- Ratio of SCFA: propionate as percentage of acetate + propionate + butyrate ([3]; microbiota 2, average): 25.3%
- Cumulative production of acetate ([4]; 0 h): 0.00 mmol
- Cumulative production of butyrate ([4]; 0 h): 0.00 mmol
- Cumulative production of propionate ([4]; 0 h): 0.00 mmol
- Pr/Ac (propionate-to-acetate ratio) ([4]; 24 h): 0.57
- Cumulative production of acetate ([4]; 24 h): 25.30 mmol
- Cumulative production of butyrate ([4]; 24 h): 15.69 mmol
- Cumulative production of propionate ([4]; 24 h): 14.30 mmol
- Pr/Ac (propionate-to-acetate ratio) ([4]; 48 h): 0.56
- Cumulative production of acetate ([4]; 48 h): 56.28 mmol
- Cumulative production of butyrate ([4]; 48 h): 35.02 mmol
- Cumulative production of propionate ([4]; 48 h): 31.64 mmol
- Pr/Ac (propionate-to-acetate ratio) ([4]; 72 h): 0.56
- Cumulative production of acetate ([4]; 72 h): 81.62 mmol
- Cumulative production of butyrate ([4]; 72 h): 52.10 mmol
- Cumulative production of propionate ([4]; 72 h): 45.41 mmol
- Ratio of SCFA: acetate as percentage of acetate + propionate + butyrate ([4]; microbiota 1, average): 51.1%
- Ratio of SCFA: butyrate as percentage of acetate + propionate + butyrate ([4]; microbiota 1, average): 28.1%
- Ratio of SCFA: propionate as percentage of acetate + propionate + butyrate ([4]; microbiota 1, average): 20.8%
- Circulating propionate after L-rhamnose ([5]; acute intake of 25 g L-rhamnose): significant increase
- Serum propionate after L-rhamnose ([5]; up to 25.5 g L-rhamnose/day for seven days): no increase

Molecule: Inulin
- n-Butyrate, change compared to control [6]: +0.46 mM
- Propionate, change compared to control ([6]; controls ~8 mM propionate): +0.03 mM
- Acetate, change compared to control ([6]; controls ~40 mM acetate): +5.87 mM

Reference: patent US20220211732A1, “PREBIOTIC COMPOSITIONS” (Evonik Operations GmbH, priority 2019, published 2022)
